The values below come from patent US8691859B2 (priority 2005, dated 2014).

The structures appear in SMILES notation. Converted amounts (≈) assume the structure as drawn. Where two headings read alike, the source gives them in different places.

The test system of experiment [1] is Burkholderia mallei. Description: microbe, parasite or virus in culture. It counts as cell-based.
The subject of experiment [2] is B. pumilus. Put plainly: microbe, parasite or virus in culture. It counts as cell-based. The conditions noted are these: Bacillus pumilus.
Experiment [3] relates to Burkholderia thailandensis. Put plainly: microbe, parasite or virus in culture. It counts as cell-based.
Experiment [4] has as its system B. brevis. Description: microbe, parasite or virus in culture. It counts as cell-based. The conditions noted are these: Brevibacillus brevis.
The test system of experiment [5] is Sterne spores. It counts as cell-based, B. anthracis.
Experiment [6] concerns Ames spores. Description: microbe, parasite or virus in culture. It counts as cell-based, B. anthracis. The conditions noted are these: Bacillus anthracis.
Experiment [7] concerns Ames spores. Put plainly: microbe, parasite or virus in culture. It counts as cell-based, B. anthracis. The conditions noted are these: Bacillus anthracis. This is another data set of the same source.
In experiment [8] the test system is B. cepacia. Description: microbe, parasite or virus in culture. It counts as cell-based. Conditions: Burkholderia cepacia.
For experiment [9], the system named is Burkholderia pseudomallei. Put plainly: microbe, parasite or virus in culture. It counts as cell-based.
In experiment [10] the test system is B. subtilis. Put plainly: microbe, parasite or virus in culture. Conditions: Bacillus subtilis. It counts as cell-based.
Experiment [11] relates to K. pneumoniae. Put plainly: microbe, parasite or virus in culture. It counts as cell-based. Conditions: Klebsiella pneumoniae.
The subject of experiment [12] is B. anthracis Ames. Put plainly: microbe, parasite or virus in culture. It counts as cell-based. Conditions: Bacillus anthracis.
The subject of experiment [13] is S. aureus. Put plainly: microbe, parasite or virus in culture. It counts as cell-based. The conditions noted are these: Staphylococcus aureus.
The test system of experiment [14] is B. anthracis GFP sterne vegetative cells. Description: microbe, parasite or virus in culture. It counts as cell-based. The conditions noted are these: Bacillus anthracis, read-out: MIC B. anthracis vegetative cells.
The subject of experiment [15] is B. vollum. Description: organism not typed. It counts as cell-based.
Experiment [16] deals with P. aeruginosa PAO1. Description: microbe, parasite or virus in culture. It counts as cell-based. Conditions: Pseudomonas aeruginosa.
In experiment [17] the test system is B. megaterium. Description: microbe, parasite or virus in culture. It counts as cell-based. Conditions: Priestia megaterium.
The test system of experiment [18] is B. licheniformis. Put plainly: microbe, parasite or virus in culture. It counts as cell-based. Conditions: Bacillus licheniformis.
Experiment [19] deals with B. vollum. Put plainly: organism not typed. It counts as cell-based. This is another data set of the same source.
Experiment [20] concerns E. coli. Description: microbe, parasite or virus in culture. It counts as cell-based. The conditions noted are these: Escherichia coli.
Experiment [21] relates to Y. pestis. Description: microbe, parasite or virus in culture. It counts as cell-based. The conditions noted are these: Yersinia pestis.
Experiment [22] deals with B. anthracis GFP sterne spores. Description: microbe, parasite or virus in culture. It counts as cell-based. Conditions: Bacillus anthracis.
Experiment [23] relates to E. feacalis. Put plainly: organism not typed. It counts as cell-based.
Experiment [24] concerns Methicillin resistant S. aureus. Description: microbe, parasite or virus in culture. It counts as cell-based. The conditions noted are these: Staphylococcus aureus.
The target in experiment [25] is anthrax lethal factor (Bacillus anthracis, UniProt P15917). It counts as biochemical.
anthrax lethal factor, sequence (P15917 34-809 limits assumed): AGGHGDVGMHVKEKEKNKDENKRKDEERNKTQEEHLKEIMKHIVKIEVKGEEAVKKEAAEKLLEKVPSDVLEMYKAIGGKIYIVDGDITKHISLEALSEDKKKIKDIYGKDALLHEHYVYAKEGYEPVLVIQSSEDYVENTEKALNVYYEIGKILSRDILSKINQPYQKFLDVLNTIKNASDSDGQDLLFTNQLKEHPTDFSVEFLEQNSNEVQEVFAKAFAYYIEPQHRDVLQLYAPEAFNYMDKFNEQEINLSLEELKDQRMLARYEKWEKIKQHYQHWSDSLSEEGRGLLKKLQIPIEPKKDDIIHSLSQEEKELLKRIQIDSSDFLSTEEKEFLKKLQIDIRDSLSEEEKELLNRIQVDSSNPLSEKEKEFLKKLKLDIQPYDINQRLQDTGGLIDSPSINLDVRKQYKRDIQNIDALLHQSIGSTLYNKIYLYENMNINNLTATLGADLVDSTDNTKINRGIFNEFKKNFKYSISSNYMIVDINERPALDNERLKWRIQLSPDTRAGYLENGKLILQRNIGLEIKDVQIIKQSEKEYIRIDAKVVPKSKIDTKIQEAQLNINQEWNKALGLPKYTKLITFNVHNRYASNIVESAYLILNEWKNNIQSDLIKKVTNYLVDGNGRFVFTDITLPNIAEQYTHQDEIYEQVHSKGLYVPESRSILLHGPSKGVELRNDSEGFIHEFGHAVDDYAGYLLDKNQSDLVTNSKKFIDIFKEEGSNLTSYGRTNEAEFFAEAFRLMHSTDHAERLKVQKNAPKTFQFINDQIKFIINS
The target in experiment [26] is botulinum neurotoxin serotype A light chain (Clostridium botulinum, UniProt P0DPI0). It counts as biochemical, Clostridium botulinium.
botulinum neurotoxin serotype A light chain, sequence (P0DPI0 2-448 limits assumed): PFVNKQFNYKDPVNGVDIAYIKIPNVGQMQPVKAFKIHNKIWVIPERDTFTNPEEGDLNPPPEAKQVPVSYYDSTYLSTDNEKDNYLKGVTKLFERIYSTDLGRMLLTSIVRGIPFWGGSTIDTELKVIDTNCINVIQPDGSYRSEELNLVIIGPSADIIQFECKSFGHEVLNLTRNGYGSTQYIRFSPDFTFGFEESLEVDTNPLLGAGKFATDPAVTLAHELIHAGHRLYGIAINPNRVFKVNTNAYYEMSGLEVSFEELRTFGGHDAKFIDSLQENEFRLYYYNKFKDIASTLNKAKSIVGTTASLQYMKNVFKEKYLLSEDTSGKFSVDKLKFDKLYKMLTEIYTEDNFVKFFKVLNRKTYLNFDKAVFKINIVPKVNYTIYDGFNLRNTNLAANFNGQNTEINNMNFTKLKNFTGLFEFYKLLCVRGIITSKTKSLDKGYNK
Experiment [27] relates to Sterne GFP spores. It counts as cell-based, B. anthracis.
The mark [28] stands for this setting: read-out: MIC B. anthracis spores.

Turning to `c1cc2cc(-c3ccc4cc(-c5ccc6oc(C7=NCCN7)cc6c5)[nH]c4c3)[nH]c2cc1C1=NCCN1` [NSC 369718, 6-(4,5-dihydro-1H-imidazol-2-yl)-2-[2-[2-(4,5-dihydro-1H-imidazol-2-yl)benzofuran-5-yl]-1H-indol-6-yl]-1H-indole], the MIC was 11.1 µg/mL (≈ 23 µM) in experiment [1]; 0.348 µg/mL (≈ 0.718 µM) in [2]; 2.78 µg/mL (≈ 5.75 µM) in [3]; 0.174 µg/mL (≈ 0.359 µM) in experiment [4]; 0.174 µg/mL (≈ 0.359 µM) in experiment [6]; 22.3 µg/mL (≈ 46 µM) in experiment [8]. The MIC in [9] came out at 2.79 µg/mL (≈ 5.75 µM); in experiment [10] it was 0.348 µg/mL (≈ 0.718 µM); in [11] it was 5.57 µg/mL (≈ 11.5 µM); in experiment [12] it was 1.39 µg/mL (≈ 2.87 µM); in [13], 0.696 µg/mL (≈ 1.44 µM); in experiment [14], 0.696 µg/mL (≈ 1.44 µM). For the same compound, the MIC in experiment [15] turned out to be 0.348 µg/mL (≈ 0.718 µM); in experiment [16] it was 1.39 µg/mL (≈ 2.87 µM); in experiment [17], 0.348 µg/mL (≈ 0.718 µM); in experiment [18] it was 1.39 µg/mL (≈ 2.87 µM); in [20], 1.39 µg/mL (≈ 2.87 µM); in [21], 1.39 µg/mL (≈ 2.87 µM). Besides, the MIC in experiment [22] (setting [28]) is 0.348 µg/mL (≈ 0.718 µM); in [23], 0.696 µg/mL (≈ 1.44 µM); in [24] it was 2.79 µg/mL (≈ 5.75 µM). In experiment [5], the “effect on spore germination” value is on record as “results to those of NSC 317881 were obtained”. For the same compound, the figures for the MBC in experiment [7] and in [19] were 0.174 µg/mL (≈ 0.359 µM) and 0.348 µg/mL (≈ 0.718 µM), respectively.
Take `C(=C\c1cc2ccc(C3=NCCN3)cc2[nH]1)/c1cc2ccc(C3=NCCN3)cc2[nH]1` [NSC 317880, 6-(4,5-dihydro-1H-imidazol-2-yl)-2-[(E)-2-[6-(4,5-dihydro-1H-imidazol-2-yl)-1H-indol-2-yl]ethenyl]-1H-indole]: the MIC in experiment [1] turned out to be 9.34 µg/mL (≈ 23.7 µM); in experiment [2] it was 0.146 µg/mL (≈ 0.37 µM); in experiment [3], 18.7 µg/mL (≈ 47.4 µM); in experiment [4] it was 0.584 µg/mL (≈ 1.48 µM); in experiment [6], 0.146 µg/mL (≈ 0.37 µM); in experiment [8] it was 18.7 µg/mL (≈ 47.4 µM). The MIC in [9] was 18.7 µg/mL (≈ 47.4 µM); in experiment [10], 0.292 µg/mL (≈ 0.74 µM); in experiment [11], greater than 18.7 µg/mL; in [12], 0.584 µg/mL (≈ 1.48 µM); in [13], 1.17 µg/mL (≈ 2.96 µM); in experiment [14], 1.17 µg/mL (≈ 2.96 µM). Besides, the MIC stood at 1.17 µg/mL (≈ 2.96 µM) in experiment [16]; 0.584 µg/mL (≈ 1.48 µM) in experiment [17]; 2.33 µg/mL (≈ 5.92 µM) in experiment [18]; 0.584 µg/mL (≈ 1.48 µM) in experiment [20]; 18.7 µg/mL (≈ 47.4 µM) in experiment [21]; 0.292 µg/mL (≈ 0.74 µM) in [22] (setting [28]). Besides, the results for the MIC in experiment [23] and in [24] were 0.584 µg/mL (≈ 1.48 µM) and 2.33 µg/mL (≈ 5.92 µM), respectively. In experiment [5], the “effect on spore germination” value is on record as “results to those of NSC 317881 were obtained”. The compound further gave an MBC in [7] of 0.146 µg/mL (≈ 0.37 µM). Besides, in [25], the “inhibition of the protease activity of anthrax lethal factor” value (from here on “inhibition … of anthrax lethal factor”) is listed as “inhibit”.
Turning to `N=C(N)c1ccc(Oc2ccc(-c3cc4ccc(C(=N)N)cc4[nH]3)cc2)cc1` [NSC 240898, 2-[4-(4-carbamimidoylphenoxy)phenyl]-1H-indole-6-carboximidamide], the “inhibition … of anthrax lethal factor” value in experiment [25] is recorded as “inhibit”. In addition, the MIC in [14] and in [22] (setting [28]) was 4.42 µg/mL (≈ 12 µM) each time. In addition, the “inhibition of botulinum neurotoxin serotype A light chain metalloprotease activity” value in experiment [26] is reported as “inhibit”.
For the compound `c1cc2cc(-c3ccc(-c4cc5ccc(C6=NCCN6)cc5[nH]4)cc3)[nH]c2cc1C1=NCCN1` [NSC 317881, 6-(4,5-dihydro-1H-imidazol-2-yl)-2-[4-[6-(4,5-dihydro-1H-imidazol-2-yl)-1H-indol-2-yl]phenyl]-1H-indole], the MIC in experiment [1] was 10.3 µg/mL (≈ 23.3 µM); in experiment [2], 0.021 µg/mL (≈ 0.0472 µM); in experiment [3], 20.7 µg/mL (≈ 46.5 µM); in experiment [4], 0.646 µg/mL (≈ 1.45 µM); in experiment [6], 0.162 µg/mL (≈ 0.364 µM); in experiment [8], greater than 20.7 µg/mL. The MIC is greater than 20.7 µg/mL in [9]; 0.162 µg/mL (≈ 0.364 µM) in experiment [10]; 10.3 µg/mL (≈ 23.3 µM) in experiment [11]; 0.32 µg/mL (≈ 0.72 µM) in experiment [12]; 0.323 µg/mL (≈ 0.727 µM) in [13]; 0.646 µg/mL (≈ 1.45 µM) in experiment [14]. The MIC in experiment [16] amounted to 0.323 µg/mL (≈ 0.727 µM); in experiment [17], 0.323 µg/mL (≈ 0.727 µM); in [18] it was 0.646 µg/mL (≈ 1.45 µM); in [20], 0.646 µg/mL (≈ 1.45 µM); in [21], 20.7 µg/mL (≈ 46.5 µM); in experiment [22] (22 h, read-out: MIC (figure legend)), 0.084 µg/mL (≈ 0.189 µM). In addition, the results for the MIC in [22] (setting [28]), in [23] and in experiment [24] were 0.162 µg/mL (≈ 0.364 µM), 0.162 µg/mL (≈ 0.364 µM) and 0.323 µg/mL (≈ 0.727 µM), respectively. In addition, the “effect on spore germination” value in [5] is recorded as “does not have an effect on spore germination”. Also, in [5], the “time after contact with germination medium by which treated spores were killed by heat” value is no more than 15 min. In [7], this compound showed an MBC of 0.162 µg/mL (≈ 0.364 µM). Besides, the “inhibition … of anthrax lethal factor” value in experiment [25] was “inhibit”. Moreover, the “reduction in cfu as compared to the DMSO control” value in [27] was “considerable reduction”. The “treatment time after which no viable spores were detected” value in experiment [27] was roughly 4 h.
Take `NC(N)=NN=Cc1ccc2cc(-c3ccc(/C=N/N=C(N)N)cc3)sc2c1` [NSC 341909, 2-[[2-[4-[(E)-(diaminomethylidenehydrazinylidene)methyl]-phenyl]benzothiophen-6-yl]methylideneamino]guanidine]: the “inhibition … of anthrax lethal factor” value in [25] is on record as “inhibit”. Besides, the results for the MIC in experiment [14] and in experiment [22] (setting [28]) were 18 µg/mL (≈ 47.7 µM) and 4.51 µg/mL (≈ 11.9 µM), respectively. Besides, the “inhibition of botulinum neurotoxin serotype A light chain metalloprotease activity” value in experiment [26] is listed as “inhibit”.
For `N=C(N)c1ccc2oc(/C=C/C=C/C=C/c3cc4cc(C(=N)N)ccc4o3)cc2c1` [NSC 308574, 2-[(1E,3E,5E)-6-(5-carbamimidoylbenzofuran-2-yl)hexa-1,3,5-trienyl]benzofuran-5-carboximidamide], the “inhibition … of anthrax lethal factor” value in experiment [25] is “inhibit”. Besides, the figures for the MIC in [14] and in experiment [22] (setting [28]) were 9.38 µg/mL (≈ 23.7 µM) and 2.35 µg/mL (≈ 5.91 µM), respectively. Moreover, the “inhibition of botulinum neurotoxin serotype A light chain metalloprotease activity” value in experiment [26] is “inhibit”.
